Assays:
EG.7 cells = assay: Viability and surface marker expression of treated EG.7 cells; format: cell-based, mouse
[1] = tested on: H-2K^b associated peptides of EG.7 cells; format: cell-based, mouse
H-2K^b [2] = molecular target: T1, H-2K^b (Mus musculus, UniProt P01901); assay: RMA-S binding assay; details: 2.5 mM PNT before peptide loading
H-2K^b [3] = molecular target: T1, H-2K^b; assay: RMA-S dissociation assay; format: binding; details: PNT before loading with peptides
proteasome = assay: Proteasomal activity in tumor cell lysates; format: biochemical, mouse
[4] = tested on: catalytic subunits of proteasomes; assay: Amount of catalytic subunits of proteasomes in EG7 tumor cells; format: cell-based, mouse; details: EG7 tumor cells treated with PNT or bortezomib
EL4 cells = assay: Empty MHC class I detection by […] loading of EL4 cells; format: cell-based, mouse; details: EL4 cells treated with PNT, n=4
EL4 tumor cells = details: pre-treatment of tumor cells with PNT; 5:1 ratio, annexin V/DAPI, 5 and 16 hours
[5] = tested on: human melanoma UACC903 cell line; assay: SILAC LC-MS/MS of HLA-A, -B, -C bound peptides after PNT; details: UACC903 cells
B16F10-iNOS cells = assay: CTL assay of Pmel-1 cells against mixed B16F10-control and B16F10-iNOS cells; format: cell-based, mouse; details: B16F10-control and B16F10-iNOS mixed 1:1, activated Pmel-1 cells, pre-treated with RTA408
[6] = tested on: nitrotyrosine (NT) in LLC tumor tissue; assay: Immunofluorescent NT staining of LLC tumor tissue; format: in vivo, mouse; details: LLC tumor-bearing mice treated with RTA408
H-2D^b = molecular target: T2, H-2D^b (Mus musculus, UniProt P01899); assay: RMA-S dissociation assay, H-2D^b; format: binding
T2 sequence (P01899 25-362): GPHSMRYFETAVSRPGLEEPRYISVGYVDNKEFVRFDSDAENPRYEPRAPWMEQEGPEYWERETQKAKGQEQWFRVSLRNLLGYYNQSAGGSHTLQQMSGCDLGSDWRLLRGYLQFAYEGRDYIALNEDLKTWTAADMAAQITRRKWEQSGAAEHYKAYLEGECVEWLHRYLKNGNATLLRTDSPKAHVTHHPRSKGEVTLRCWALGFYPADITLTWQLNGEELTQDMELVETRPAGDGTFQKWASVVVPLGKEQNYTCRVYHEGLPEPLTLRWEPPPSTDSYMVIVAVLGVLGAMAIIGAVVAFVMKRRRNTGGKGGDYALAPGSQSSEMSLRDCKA
T2 sequence (P01887 21-119 partner): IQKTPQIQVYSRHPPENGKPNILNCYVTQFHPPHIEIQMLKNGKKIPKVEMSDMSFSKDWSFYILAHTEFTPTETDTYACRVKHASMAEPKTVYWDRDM

T1 sequence (P01901 whole entry, looked up): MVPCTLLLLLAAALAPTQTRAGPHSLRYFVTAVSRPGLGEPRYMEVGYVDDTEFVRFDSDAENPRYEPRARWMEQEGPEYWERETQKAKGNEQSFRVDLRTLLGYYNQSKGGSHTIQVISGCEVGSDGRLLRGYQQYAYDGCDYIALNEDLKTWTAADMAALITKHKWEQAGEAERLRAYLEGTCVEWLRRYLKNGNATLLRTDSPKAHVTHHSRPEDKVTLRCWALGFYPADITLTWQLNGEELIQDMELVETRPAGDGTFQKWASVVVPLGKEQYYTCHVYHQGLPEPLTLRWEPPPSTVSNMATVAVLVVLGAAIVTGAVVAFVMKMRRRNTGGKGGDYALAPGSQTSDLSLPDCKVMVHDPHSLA

## O=NOO [PNT, peroxynitrite]
EG.7 cells; 2.5 mM PNT
  NT (nitrotyrosine) expression: substantial up-regulation
  cell viability: did not affect
  expression of MHCI H-2K^b molecules: did not affect
[1]; 2.5 mM PNT on ice 5 min, 16 h after the treatment
  recovery of H-2K^b peptide profile: returned to the pre-treatment level
[1]; 2.5 mM PNT on ice 5 min, right after the treatment (0 min)
  change in H-2K^b peptide profile: no substantial changes
H-2K^b [2]
  effect of PNT pre-treatment of RMA-S cells on binding of the peptides: only a small decrease
H-2K^b [3]
  effect of PNT treatment of RMA-S cells on dissociation rates: no detectable effect
proteasome; EG7 and LLC cells, 100 ng/ml IFN-γ 24 hours, then PNT
  effect on proteasomal activity in IFN-γ pre-treated vs non-pre-treated cells: the same
proteasome; EG.7 cells, 2.5 mM PNT, chymotrypsin, trypsin and caspase-like activities
  recovery of proteasomal activity over time: almost completely restored by 22 hours
proteasome; EL4 and LLC cell lines, 2.5 mM PNT 5 min on ice, proteasome-specific fluorogenic substrates
  proteasome types and activities affected: affected mostly chymotrypsin- and trypsin-like activities associated with constitutive proteasomes
proteasome; tumor cells treated with 2.5 mM PNT for 5 min, n=3
  proteasomal activity: profound decrease
[4]
  amount of 6 catalytic subunits of proteasomes: did not affect
EL4 cells
  total H-2Kb expression, PNT-treated vs control cells: no differences
EL4 tumor cells
  killing of tumor cells by CTLs generated against PNT-resistant peptides: did not affect killing
[5]
  change in HLA-A, -B, -C bound peptide profile: substantially changed the peptide profile

## CC1(C)CC[C@]2(NC(=O)C(C)(F)F)CC[C@]3(C)[C@H](C(=O)C=C4[C@@]5(C)C=C(C#N)C(=O)C(C)(C)[C@@H]5CC[C@]43C)[C@@H]2C1 [RTA408, Omaveloxolone]
B16F10-iNOS cells
  resistance of B16F10-iNOS cells to killing by CTLs: completely abrogated resistance
[6]
  NT staining in tumor tissues: reduced NT staining

## EGSRNQDWL
H-2D^b
  dissociation from H-2D^b: dissociated significantly faster

## CC(C)C[C@H](NC(=O)[C@H](Cc1ccccc1)NC(=O)c1cnccn1)B(O)O [bortezomib]
EG.7 cells; 15 nM bortezomib
  expression of MHC class I (H2K^b): did not affect
  viability of tumor cells: did not affect
[1]; EG.7 cells, 15 nM bortezomib
  representation of MHCI peptides vs non-treated cells: substantial decrease
proteasome; EG.7 cells, 15 nM bortezomib, N=5
  proteasomal activity: modest inhibition
[4]
  amount of 6 catalytic subunits of proteasomes: did not affect
